For eight compounds, GI50 and TGI results are on record in PubChem BioAssay (NCI).

Values joined by “and” are separate entries in the source; they are usually repeats but may differ in a detail not shown here. Equal values may be shown once.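 96-well plates; 48 h exposure; 5 concentrations. Endpoints by linear interpolation between flanking doses. Not reached: highest tested concentration assigned. Here, GI50 denotes the concentration required for 50% inhibition of growth. TGI denotes the concentration required for complete inhibition of growth.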

Holding throughout (test): growth of human tumour cells (NCI), 48 h
For assay [1], the system named is HCT-116 colon.
The subject of assay [2] is MCF7 breast.
The subject of assay [3] is OVCAR-5 ovarian.
The subject of assay [4] is SF-268 CNS.
In assay [5] the test system is SK-MEL-2 melanoma.
Assay [6] deals with SK-MEL-5 melanoma.
Assay [7] has as its system SNB-75 CNS.
The test system of assay [8] is T-47D breast.
The test system of assay [9] is TK-10 renal.
Assay [10] concerns MALME-3M melanoma.

As to `CC[C@H](C)[C@H](NC(=O)[C@H]1CCCCN1C)C(=O)N(C)[C@H](C[C@@H](OC(C)=O)c1cccc(C(=O)N[C@@H](Cc2ccccc2)C[C@H](C)C(=O)OC)n1)C(C)C`, the GI50 in assay [1] was 0.00325 µM and 0.0025 µM; in [2], 0.000334 µM and 0.0025 µM; in assay [3], 0.0137 µM; in assay [4], 0.00498 µM and 0.00661 µM; in assay [5], 0.0025 µM; in assay [6] it was 0.00107 µM and 0.0025 µM. Also, the GI50 is 0.00366 µM and 0.00479 µM in [7]; 0.000953 µM in assay [8]. The TGI is greater than 25 µM in assay [1]; greater than 25 µM in assay [2]; greater than 25 µM in assay [3]; greater than 25 µM in assay [4]; 10.3 µM in assay [5]; 0.0382 µM and 0.0333 µM in assay [6]. The TGI in assay [7] and in assay [9] was greater than 25 µM in each case.

`COc1ccc(C2(Cl)c3ccccc3N(c3ccccc3)c3ccccc32)cc1`: the GI50 in assay [10] is 0.298 µM; in assay [2], 0.182 µM; in [3], 2.19 µM; in assay [4], 0.758 µM; in assay [5] it was 0.377 µM; in assay [6], 0.266 µM. The GI50 in [7] is 0.359 µM; in [8], 0.288 µM; in assay [9] it was 0.516 µM. Moreover, the TGI in assay [10] was 1.66 µM; in assay [2], 1.9 µM; in assay [3], 7.64 µM; in assay [4] it was 2.88 µM; in assay [5], 1.85 µM; in assay [6], 1.31 µM. Besides, the TGI in [7] is 2.05 µM; in assay [8] it was 5.38 µM; in assay [9], 3.21 µM.

In the case of `O=C(CN(/C=C/C(=O)C(F)(F)F)c1ccc(Cl)cc1)c1ccc(Cl)cc1`, the GI50 is 4.09 µM in [1]; 15.5 µM in [10]; 5.15 µM in assay [2]; 16.1 µM in assay [3]; 11.5 µM in assay [4]; 3.88 µM in [5]. Besides, the values for the GI50 in assay [6], in [8] and in assay [9] were 11.6 µM, 5.88 µM and 4.78 µM, respectively. The TGI in assay [1] came to 20.7 µM; in assay [10], 50.8 µM; in assay [2], 29.8 µM; in assay [3] it was 32.9 µM; in assay [4], 29.4 µM; in [5] it was 14.4 µM. In addition, the figures for the TGI in [6], in assay [8] and in assay [9] were 24.3 µM, 38.3 µM and 19.3 µM, respectively.

Take `COc1cc(/C=C2\CC3C4CC=C5C[C@@H](OC(C)=O)CC[C@]5(C)C4CC[C@]3(C)C2=O)ccc1OCCN1CCCCC1` (stereo partly drawn): the GI50 in [10] is 1.66 µM; in [2], 2.07 µM; in assay [3] it was 3.83 µM; in [4], 3.39 µM; in assay [5] it was 10.1 µM; in assay [6], 1.71 µM. The GI50 in assay [7] is 27.3 µM; in assay [8], 2.98 µM; in assay [9], 3.4 µM. The TGI was determined as 3.35 µM in assay [10]; 5.53 µM in assay [2]; 7.42 µM in [3]; 31.4 µM in [4]; 28.4 µM in [5]; 3.08 µM in [6]. For the same compound, the TGI was 56.9 µM in [7], 13.1 µM in [8] and 12.3 µM in assay [9].

As to `O=C(CSc1nc2c(n1Nc1ccccc1)-c1ccccc1SC2)Nc1nc(-c2ccc(Cl)cc2)cs1`, the GI50 in assay [1] was 6.37 µM; in assay [2] it was greater than 100 µM; in assay [3] it was greater than 100 µM; in assay [4], 10.8 µM; in assay [5], 37.2 µM; in assay [6], greater than 100 µM. Moreover, the GI50 in assay [7] is 9.23 µM; in assay [8], 26.6 µM; in [9] it was 22.9 µM. Besides, the TGI in [1], in [2], in assay [3], in assay [4], in assay [5] and in assay [6] was greater than 100 µM each time. The figures for the TGI in assay [7], in assay [8] and in assay [9] were 23.8 µM, greater than 100 µM and 58.9 µM, respectively.

In the case of `O=c1c2c(nc3n1CCS3)[nH]c1cc([N+](=O)[O-])ccc12`, the GI50 in assay [1] is greater than 100 µM; in assay [10], greater than 100 µM; in [2], 7.57 µM; in assay [3] it was greater than 100 µM; in assay [4], greater than 100 µM; in assay [5] it was greater than 100 µM. Besides, the GI50 is 57.1 µM in [7], 45 µM in assay [8] and greater than 100 µM in [9]. For the same compound, the TGI in assay [1] was greater than 100 µM; in [10], greater than 100 µM; in assay [2], 30.9 µM; in [3] it was greater than 100 µM; in assay [4], greater than 100 µM; in assay [5], greater than 100 µM. The TGI in [7], in assay [8] and in assay [9] was greater than 100 µM in each case.

Take `O=C(O)CSc1n[nH]c(=O)[nH]c1=O`: the TGI in assay [1], in [10], in assay [2], in assay [3], in [4] and in assay [5] was greater than 100 µM in each case. The TGI in assay [6], in assay [7] and in [8] was greater than 100 µM throughout.

Turning to `CC1Cc2c(Cl)ncnc2N(C)c2ccc(Cl)cc21` (stereo not drawn), the GI50 in [1] was 0.314 µM; in [10], 0.276 µM; in [3], 0.592 µM; in assay [4] it was 0.319 µM; in [5], 0.28 µM; in assay [6], 0.185 µM. Moreover, the figures for the GI50 in assay [7], in assay [8] and in [9] were 0.0795 µM, 0.521 µM and 0.315 µM, respectively. The TGI in [1] is 12.6 µM; in [10], 3.67 µM; in assay [3], greater than 100 µM; in assay [4] it was 18.2 µM; in assay [5], 0.836 µM; in [6] it was 0.338 µM. Besides, the TGI was greater than 100 µM in assay [7], greater than 100 µM in [8] and 13.2 µM in assay [9].
